Measured values: ChEMBL document CHEMBL4622979, “Non-rigid Diarylmethyl Analogs of Baloxavir as Cap-Dependent Endonuclease Inhibitors of Influenza Viruses” (J Med Chem, 2020)
Calls of active or inactive are those of the source. The calls are words filed in the database; no cut-off is given here.

Key:
HEK-293T [1] = test: Inhibition of CEN polymerase activity in Influenza A/California/04/2009 (H1N1)pdm09 NP/PA/PB1/PB2 complex transfected in HEK293T cells co-expressing beta-galactosidase at 100 nM preincubated for 3 hrs followed by viral gene transfection and measured after 24 hrs by ONPG substrate based luciferase reporter gene mini-replicon assay relative to control; assay type: cell-based; conditions: Influenza A virus (A/California/04/2009(H1N1))
[2] = AUClast in CD1 mouse plasma at 2 mg/kg, iv administered as single dose by LC-MS/MS analysis; assay type: ADME, organism-based; parameters: dose 2 mg/kg, route intravenous, time 0 - last
Influenza A virus [3] = test: Antiviral activity against Influenza A/California/04/2009 (H1N1)pdm09 infected in specific pathogen-free BALB/c mouse assessed as protection against virus-induced mouse death at 20 mg/kg, po administered via gavage immediately after infection and at 12 hrs post-infection measured on 16 days post-infection relative to control; assay type: functional
[4] = Stability in rat liver S9 fraction assessed as parent compound remaining at 1 uM measured after 4 hrs by LC-MS/MS analysis; assay type: ADME, subcellular; conditions: read-out: Stability
[5] = Cytotoxicity against MDCK cells assessed as reduction in cell viability by ATP bioluminescence assay; assay type: cell-based, Canis lupus familiaris; conditions: dog
Influenza B virus [6] = test: Antiviral activity against Victoria lineage of Influenza B virus (B/Brisbane/60/2008) infected in MDCK cells assessed as protection against virus-induced cell death measured 72 to 96 hrs post-infection by CellTiter-Glo assay; assay type: functional, organism-based; conditions: B/Brisbane/60/2008, MDCK
Influenza A virus [7] = test: Antiviral activity against Influenza A virus (A/Denmark/524/2009(H1N1)) pdm09 infected in MDCK cells assessed as protection against virus-induced cell death measured 72 to 96 hrs post-infection by CellTiter-Glo assay; assay type: functional, organism-based; conditions: A/Denmark/524/2009(H1N1) pdm09, MDCK
[8] = Ratio of Cmax in CD1 mouse lung to plasma at 10 mg/kg, po administered as single dose by LC-MS/MS analysis; assay type: ADME, organism-based; conditions: lung and plasma
[9] = Stability in human plasma assessed as parent compound remaining at 1 uM measured after 4 hrs by LC-MS/MS analysis; assay type: ADME, cell-free; conditions: read-out: Stability
[10] = Stability in simulated gastric fluid assessed as parent compound remaining at 1 uM measured after 4 hrs at pH 1.2 by LC-MS/MS analysis; assay type: physicochemical; conditions: read-out: Stability
[11] = Stability in simulated intestinal fluid assessed as parent compound remaining at 1 uM measured after 4 hrs at pH 1.2 by LC-MS/MS analysis; assay type: physicochemical; conditions: read-out: Stability
Influenza A virus [12] = test: Antiviral activity against Influenza A/California/04/2009 (H1N1)pdm09 infected in MDCK cells assessed as protection against virus-induced cell death by CellTiter-Glo assay; assay type: functional, organism-based; conditions: A/California/04/2009(H1N1) pdm09, MDCK
[13] = AUClast in CD1 mouse lung at 10 mg/kg, po administered as single dose by LC-MS/MS analysis; assay type: ADME, organism-based; conditions: in vivo
[14] = Ratio of AUClast in CD1 mouse lung to plasma at 10 mg/kg, po administered as single dose by LC-MS/MS analysis; assay type: ADME, organism-based; conditions: lung and plasma, read-out: Ratio AUC
[15] = Cytotoxicity against human HepG2 cells assessed as reduction in cell viability measured after 24 hrs in presence of glucose by MTT assay; assay type: cell-based
[16] = Toxicity in Influenza A/California/04/2009 (H1N1)pdm09 infected specific pathogen-free BALB/c mouse assessed as reduction in body weight at 20 to 50 mg/kg, po administered via gavage immediately after infection and at 12 hrs post-infection measured on 10 days post-infection; assay type: organism-based; conditions: in vivo, 240 h
[17] = Selectivity ratio of CC50 for human HepG2 cells assessed as reduction in cell viability measured after 24 hrs in presence of glucose to CC50 for human HepG2 cells assessed as reduction in cell viability measured after 24 hrs in presence of galactose; assay type: cell-based
[18] = Protein binding in mouse plasma at 1 uM measured after 4 hrs by LC-MS/MS analysis; assay type: ADME, cell-free; conditions: read-out: PPB (converted)
[19] = Selectivity index, ratio of CC50 for MDCK cells to EC50 for Influenza A/California/04/2009 (H1N1)pdm09 virus infected in MDCK cells; assay type: toxicity, cell-based; conditions: dog, read-out: Ratio CC50/EC50
[20] = Cmax in CD1 mouse lung at 10 mg/kg, po administered as single dose by LC-MS/MS analysis; assay type: ADME, organism-based; parameters: dose 10 mg/kg, route oral
[21] = Cytotoxicity against human HepG2 cells assessed as reduction in cell viability measured after 24 hrs in presence of galactose by MTT assay; assay type: cell-based
[22] = Cytotoxicity against human PBMC cells assessed as reduction in cell viability by ATP bioluminescence assay; assay type: cell-based
[23] = Stability in mouse plasma assessed as parent compound remaining at 1 uM measured after 4 hrs by LC-MS/MS analysis; assay type: ADME, cell-free; conditions: read-out: Stability
[24] = Oral bioavailability in CD1 mouse at 10 mg/kg administered as single dose by LC-MS/MS analysis; assay type: ADME, organism-based; conditions: in vivo
[25] = Stability in human liver S9 fraction assessed as parent compound remaining at 1 uM measured after 4 hrs by LC-MS/MS analysis; assay type: ADME, subcellular; conditions: read-out: Stability
Influenza A virus [26] = test: Antiviral activity against Influenza A/California/04/2009 (H1N1)pdm09 infected in specific pathogen-free BALB/c mouse assessed as protection against virus-induced mouse death at 50 mg/kg, po administered via gavage immediately after infection and at 12 hrs post-infection measured on 16 days post-infection relative to control; assay type: functional
[27] = Protein binding in rat plasma at 1 uM measured after 4 hrs by LC-MS/MS analysis; assay type: ADME, cell-free; conditions: read-out: PPB (converted)
HEK-293T [28] = test: Inhibition of CEN polymerase activity in Influenza A/California/04/2009 (H1N1)pdm09 NP/PA/PB1/PB2 complex transfected in HEK293T cells co-expressing beta-galactosidase at 25 nM preincubated for 3 hrs followed by viral gene transfection and measured after 24 hrs by ONPG substrate based luciferase reporter gene mini-replicon assay relative to control; assay type: cell-based; conditions: Influenza A virus (A/California/04/2009(H1N1))
[29] = AUClast in CD1 mouse plasma at 10 mg/kg, po administered as single dose by LC-MS/MS analysis; assay type: ADME, organism-based; parameters: dose 10 mg/kg, route oral, time 0 - last
[30] = Toxicity in Influenza A/California/04/2009 (H1N1)pdm09 infected specific pathogen-free BALB/c mouse assessed as effect on body weight at 20 to 50 mg/kg, po administered via gavage immediately after infection and at 12 hrs post-infection measured after 10 days post-infection; assay type: organism-based; conditions: in vivo, 240 h
[31] = target: dopamine transporter (sodium-dependent dopamine transporter) (Homo sapiens, UniProt Q01959); test: Binding affinity to human dopamine transporter at 10 uM relative to control; assay type: ADME; conditions: read-out: Activity
Influenza A virus H3N2 = test: Antiviral activity against Influenza A virus (A/Fukui/20/2004 (H3N2)) infected in MDCK cells assessed as protection against virus-induced cell death measured 72 to 96 hrs post-infection by CellTiter-Glo assay; assay type: functional, organism-based; conditions: A/Fukui/20/2004, MDCK
[32] = Stability in rat plasma assessed as parent compound remaining at 1 uM measured after 4 hrs by LC-MS/MS analysis; assay type: ADME, cell-free; conditions: read-out: Stability
[33] = Cytotoxicity against human MRC5 cells assessed as reduction in cell viability by ATP bioluminescence assay; assay type: cell-based
Influenza A virus [34] = test: Antiviral activity against Influenza A/California/04/2009 (H1N1)pdm09 infected in specific pathogen-free BALB/c mouse assessed as reduction in virus titre in lung at 20 mg/kg, po administered via gavage immediately after infection and at 12 hrs post-infection measured 24 hrs post-infection; assay type: functional, organism-based
[35] = Cmax in CD1 mouse plasma at 10 mg/kg, po administered as single dose by LC-MS/MS analysis; assay type: ADME, organism-based; parameters: dose 10 mg/kg, route oral
Influenza B virus [36] = test: Antiviral activity against Yamagata lineage of Influenza B virus (B/Florida/4/2006) infected in MDCK cells assessed as protection against virus-induced cell death measured 72 to 96 hrs post-infection by CellTiter-Glo assay; assay type: functional, organism-based; conditions: B/Florida/4/2006, MDCK
[37] = Protein binding in human plasma at 1 uM measured after 4 hrs by LC-MS/MS analysis; assay type: ADME, cell-free; conditions: read-out: PPB (converted)
[38] = Stability in mouse liver S9 fraction assessed as parent compound remaining at 1 uM measured after 4 hrs by LC-MS/MS analysis; assay type: ADME, subcellular; conditions: read-out: Stability
[39] = Cytotoxicity against MDCK cells assessed as reduction in cell viability by CellTiter-Glo assay; assay type: cell-based, Canis lupus familiaris; conditions: dog

Chain of dopamine transporter (sodium-dependent dopamine transporter) (Q01959 whole entry): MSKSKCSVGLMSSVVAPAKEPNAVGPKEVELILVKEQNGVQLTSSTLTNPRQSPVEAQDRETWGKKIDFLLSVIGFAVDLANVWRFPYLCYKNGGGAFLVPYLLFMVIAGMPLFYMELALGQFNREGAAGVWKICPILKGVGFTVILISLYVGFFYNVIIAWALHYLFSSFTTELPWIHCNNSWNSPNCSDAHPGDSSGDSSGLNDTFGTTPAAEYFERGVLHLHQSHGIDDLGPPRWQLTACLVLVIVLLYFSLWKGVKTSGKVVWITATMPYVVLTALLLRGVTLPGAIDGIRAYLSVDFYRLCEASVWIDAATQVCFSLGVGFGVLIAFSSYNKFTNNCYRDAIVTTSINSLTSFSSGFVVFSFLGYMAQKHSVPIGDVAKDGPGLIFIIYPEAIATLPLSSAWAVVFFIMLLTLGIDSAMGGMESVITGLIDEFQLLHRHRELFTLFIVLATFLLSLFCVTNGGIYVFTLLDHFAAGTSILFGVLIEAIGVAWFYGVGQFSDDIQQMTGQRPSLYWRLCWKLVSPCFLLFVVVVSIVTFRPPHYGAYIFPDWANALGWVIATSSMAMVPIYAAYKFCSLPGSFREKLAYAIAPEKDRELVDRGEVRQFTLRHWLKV

O=C1c2c(O)c(=O)ccn2N(C(c2ccccc2)c2ccccc2)[C@@H]2COCCN12
inhibition (HEK-293T [1]): 70%
AUC(0-t) [2]: 844 ng·h/mL
Activity (Influenza A virus [3]): 80%
remaining at 4 h, 1 µM [4]: 79%
CC50 [5]: 5.8 µM
EC50 (Influenza B virus [6]): 5.1 to 28.3 µM
EC50 (Influenza A virus [7]): 0.0036 to 0.0125 µM
Kp [8]: 2.2
remaining at 4 h, 1 µM [9]: 63.2%
remaining at 4 h, 1 µM [10]: 96%
remaining at 4 h, 1 µM [11]: 89.3%
EC50 (Influenza A virus [12]): 0.0185 µM
AUClast [13]: 7477 ng·h/g
Kp [14]: 3.1
CC50 at 24 h [15]: 20 µM
Activity [16]: Toxic
selectivity ratio at 24 h [17]: 1.1
fraction unbound at 4 h, 1 µM [18]: 0.138
selectivity ratio [19]: 654
Cmax [20]: 3720 ng/g
CC50 at 24 h [21]: 18 µM
CC50 [22]: 21 µM
remaining at 4 h, 1 µM [23]: 70.1%
bioavailability [24]: 38.2%
remaining at 4 h, 1 µM [25]: 82.8%
Activity (Influenza A virus [26]): 60%
fraction unbound at 4 h, 1 µM [27]: 0.193
inhibition (HEK-293T [28]): 17.8%
AUC(0-t) [29]: 2420 ng·h/mL
Activity [30]: Non-Toxic
activity at 10 µM [31]: 71.7%
EC50 (Influenza A virus H3N2): 0.0036 to 0.0125 µM
remaining at 4 h, 1 µM [32]: 71.4%
CC50 [33]: > 100 µM
Activity (Influenza A virus [34]): Active
Cmax [35]: 1660 ng/mL
EC50 (Influenza B virus [36]): 5.1 to 28.3 µM
fraction unbound at 4 h, 1 µM [37]: 0.033
remaining at 4 h, 1 µM [38]: 97.1%
CC50 [39]: 12.1 µM
